This note sets out measurements from ChEMBL document CHEMBL1201862, “PubChem BioAssay data set” (2004).

Common to all, as to assay: NCI anticancer screen, dose series, 48 h
Assay [1] has as its system A549.
Assay [2] concerns ACHN.
For assay [3], the system named is HL-60.
Assay [4] deals with HOP-62.
Assay [5] has as its system HOP-92.
The test system of assay [6] is HT-29.
The subject of assay [7] is KM12.
The test system of assay [8] is LOX IMVI.
The subject of assay [9] is Malme-3M.
The subject of assay [10] is NCI-H460.
Assay [11] concerns RPMI-8226.
In assay [12] the test system is SF-268.
Assay [13] relates to SK-OV-3.
Assay [14] has as its system SW-620.
Assay [15] concerns UO-31.
Assay [16] has as its system OVCAR-4.
The subject of assay [17] is SN12C.

Molecules are shown by their SMILES.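 Compound exposure: 48 hours, 5 concentrations, 96-well plates. GI50 marks 50% less growth.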 The source made the active and inactive calls. Cut-off read from the data, not from the text of the source: active = GI50 up to about 1.1 µM and inactive = higher.

On to `C/C(CC(=O)Nc1ccccc1C)=N/NS(=O)(=O)c1ccc(C)cc1`, for which the GI50 in assay [1], in [2], in assay [3], in assay [4], in assay [5] and in assay [6] was > 100 µM (inactive) in each case. The GI50 in assay [7], in [8], in assay [9], in assay [10], in assay [11] and in assay [12] was > 100 µM (inactive) throughout. Also, the GI50 in [13], in assay [14] and in assay [15] was > 100 µM (inactive) in each case.
On to `CCCC(C)C[C@@H](C)CC(C)/C=C(\C)c1oc(=O)c(C)c(O)c1C.CC[C@@H](C)C[C@@H](C)C[C@@H](C)/C=C(\C)c1oc(=O)c(C)c(O)c1C` (stereo partly specified), for which the GI50 in assay [1] is 17.3 µM (inactive); in assay [2], 5.57 µM (inactive); in assay [3] it was 13.6 µM (inactive); in assay [4], 18.7 µM (inactive); in [6] it was 13.9 µM (inactive); in [7], 20.4 µM (inactive). The GI50 in [8] was 17.1 µM (inactive); in assay [9], 3.56 µM (inactive); in assay [10], 9.29 µM (inactive); in assay [16] it was 10.4 µM (inactive); in assay [12] it was 14.1 µM (inactive); in assay [17], 15.3 µM (inactive). Moreover, the GI50 is 17.7 µM (inactive) in assay [14] and 13.6 µM (inactive) in [15].
On to `CC(C(=O)c1ccc(Cl)cc1)C1OC(=O)C(Cl)=C1Cl` (stereo unspecified), for which the GI50 in assay [1] was > 100 µM (inactive); in assay [2], 41.3 µM (inactive); in assay [3], 19 µM (inactive); in assay [4], > 100 µM (inactive); in assay [6], 31.6 µM (inactive); in assay [7], 33.9 µM (inactive). The GI50 in assay [8] is 24.3 µM (inactive); in [9] it was 21.4 µM (inactive); in [10], > 100 µM (inactive); in [16] it was 25.7 µM (inactive); in [11] it was 26.9 µM (inactive); in assay [12] it was 30.3 µM (inactive). The GI50 is > 100 µM (inactive) in assay [13], 24.6 µM (inactive) in assay [17], 34.5 µM (inactive) in assay [14] and 95.9 µM (inactive) in assay [15].
Turning to `COc1ccc([N+]2=NC(c3ccc([N+](=O)[O-])cc3)=NN(c3ccccc3)C2)cc1.[O-][Cl+3]([O-])([O-])[O-]`, the GI50 is > 100 µM (inactive) in assay [1]; 86.5 µM (inactive) in [2]; 22.3 µM (inactive) in assay [3]; > 100 µM (inactive) in assay [4]; 62.7 µM (inactive) in assay [6]; 90.2 µM (inactive) in [7]. Moreover, the GI50 in assay [8] was 68.5 µM (inactive); in [9] it was > 100 µM (inactive); in [10] it was 64.6 µM (inactive); in assay [16], > 100 µM (inactive); in assay [11], 33 µM (inactive); in assay [12], > 100 µM (inactive). Besides, the GI50 in [17] was > 100 µM (inactive); in assay [14] it was > 100 µM (inactive); in assay [15], 51.5 µM (inactive).
As for `COC(=O)CC(NC(=O)OCc1ccccc1)C(C(=O)OCc1ccccc1)C1(C)OCCO1` (stereo unspecified), the GI50 was 32.4 µM (inactive) in [1]; 34.9 µM (inactive) in assay [2]; 21.1 µM (inactive) in assay [3]; 47.5 µM (inactive) in [4]; 53.6 µM (inactive) in assay [6]; 28.9 µM (inactive) in assay [8]. The GI50 in assay [9] was 33.3 µM (inactive); in assay [10], 34.7 µM (inactive); in assay [16], 67.6 µM (inactive); in assay [11], 22.1 µM (inactive); in assay [12] it was 50.1 µM (inactive); in assay [17], 47.4 µM (inactive). Further, the values for the GI50 in [14] and in assay [15] were 47.6 µM (inactive) and 18.2 µM (inactive), respectively.
In the case of `Cc1no[n+]([O-])c1/C=N/NS(=O)(=O)c1ccccc1`, the GI50 in assay [1], in assay [3], in [4], in [5], in assay [6] and in assay [7] was > 100 µM (inactive) throughout. Besides, the GI50 in [9], in assay [16], in assay [11], in assay [12], in assay [13] and in assay [17] was > 100 µM (inactive) each time. Besides, the GI50 in assay [14] and in [15] was > 100 µM (inactive) in each case.
On to `O=c1c(-c2cccc3ccccc23)c(-c2cccc3ccccc23)c1=O`, for which the GI50 in assay [1] is 0.741 µM (active); in assay [2], 0.716 µM (active); in assay [3] it was 0.721 µM (active); in assay [4], 3.57 µM (inactive); in [5], 0.948 µM (active); in [6], 0.35 µM (active). Moreover, the GI50 in assay [7] is 0.608 µM (active); in assay [8], 1.77 µM (inactive); in assay [9], 2.18 µM (inactive); in assay [10], 0.586 µM (active); in [11], 0.736 µM (active); in assay [12], 5.47 µM (inactive). Besides, the GI50 in [13] was 10.8 µM (inactive); in assay [17] it was 5.06 µM (inactive); in assay [14], 0.33 µM (active); in assay [15], 11.8 µM (inactive).
For `Cc1cc(O)c2c3c1C(=O)Oc1c(CO)c(O)c(C(=O)O)c(c1O3)C=NN=Cc1c3c(c(CO)c(O)c1C(=O)O)OC(=O)c1c(C)cc(O)c(c1O3)C=NN=C2`, the GI50 in assay [1] is > 100 µM (inactive); in assay [2], > 100 µM (inactive); in assay [4], > 100 µM (inactive); in assay [5] it was > 100 µM (inactive); in assay [6] it was > 100 µM (inactive); in assay [7] it was 48.6 µM (inactive). The GI50 in [8], in assay [9], in [10], in assay [16], in [12] and in assay [13] was > 100 µM (inactive) in each case. Further, the GI50 in [17], in [14] and in [15] was > 100 µM (inactive) in each case.
With `CCCCCCN(N)C(=O)CC#N`, the GI50 is > 100 µM (inactive) in assay [1]; 95.5 µM (inactive) in assay [2]; > 100 µM (inactive) in assay [4]; 53 µM (inactive) in [5]; > 100 µM (inactive) in assay [6]; 23 µM (inactive) in assay [7]. Further, the GI50 was 72.1 µM (inactive) in [8]; > 100 µM (inactive) in assay [9]; > 100 µM (inactive) in assay [10]; 48.4 µM (inactive) in assay [16]; 19.8 µM (inactive) in [11]; > 100 µM (inactive) in [12]. Moreover, the GI50 in assay [13], in [17], in [14] and in assay [15] was > 100 µM (inactive) throughout.
On to `Cc1c(Cl)c2ccccc2n1S(=O)(=O)c1ccccc1`, for which the GI50 was 41.3 µM (inactive) in [1]; 38.1 µM (inactive) in [2]; 25.8 µM (inactive) in [3]; 65.5 µM (inactive) in assay [4]; 15.7 µM (inactive) in assay [5]; 46 µM (inactive) in [6]. For the same compound, the GI50 is 37.9 µM (inactive) in assay [7]; > 100 µM (inactive) in [9]; 44.6 µM (inactive) in assay [10]; 36.7 µM (inactive) in assay [16]; 27.8 µM (inactive) in [11]; 64 µM (inactive) in assay [12]. In addition, the figures for the GI50 in assay [14] and in assay [15] were 38.5 µM (inactive) and 26.1 µM (inactive), respectively.
Regarding `C[N+](C)(C)CC(=O)N/N=C(/Cc1nc2ccc([N+](=O)[O-])cc2nc1O)C(=O)Nc1cc(C(F)(F)F)ccc1Cl`, the GI50 was > 100 µM (inactive) in assay [1]; > 100 µM (inactive) in assay [2]; > 100 µM (inactive) in [3]; > 100 µM (inactive) in [4]; 62.1 µM (inactive) in assay [5]; > 100 µM (inactive) in assay [6]. Besides, the GI50 in assay [7] was > 100 µM (inactive); in assay [9], > 100 µM (inactive); in [10], > 100 µM (inactive); in assay [16], > 100 µM (inactive); in [11] it was 63.1 µM (inactive); in assay [12], > 100 µM (inactive). In addition, the GI50 in assay [13] is > 100 µM (inactive); in assay [17] it was > 100 µM (inactive); in [14], > 100 µM (inactive); in assay [15], 40.8 µM (inactive).
With `O/N=C1/C(=C/c2ccc(Cl)c(Cl)c2)CCCC1C(NO)c1ccc(Cl)c(Cl)c1` (stereo unspecified), the GI50 in [1] was 17.2 µM (inactive); in assay [2] it was 18.4 µM (inactive); in assay [3] it was 17.6 µM (inactive); in assay [4] it was 20.1 µM (inactive); in [6] it was 16.7 µM (inactive); in assay [7] it was 18 µM (inactive). Further, the GI50 was 20 µM (inactive) in assay [9]; 21.1 µM (inactive) in assay [10]; 12.9 µM (inactive) in assay [16]; 17.1 µM (inactive) in [11]; 23.5 µM (inactive) in assay [12]; 20.4 µM (inactive) in assay [13]. Also, the figures for the GI50 in [17], in [14] and in [15] were 17.8 µM (inactive), 17.9 µM (inactive) and 18.7 µM (inactive), respectively.
Take `CO[C@H](c1ccccc1)[C@H](C)N(C)c1ccc2ccccc2c1C1=NC(C)(C)CO1`: the GI50 in assay [1] is 15.9 µM (inactive); in assay [2] it was 16 µM (inactive); in assay [3], 21.3 µM (inactive); in assay [4], 21 µM (inactive); in assay [5], 15.7 µM (inactive); in [6] it was 10.7 µM (inactive). Also, the GI50 was 17.1 µM (inactive) in [7]; 16.3 µM (inactive) in [9]; 16 µM (inactive) in assay [10]; > 10 µM (inactive) in assay [16]; 15.6 µM (inactive) in [11]; 18.4 µM (inactive) in [12]. Also, the GI50 is 19.2 µM (inactive) in [13], 18 µM (inactive) in [17], 15.9 µM (inactive) in [14] and 13.7 µM (inactive) in [15].
